Converted amounts (≈) assume the structure as drawn. Where two headings read alike, the source gives them in different places.
Key:
[1] = membrane-permeation test, plasma-treated (hydrophilic feed side) membrane, PBS feed, decanol permeate; assay type: in vitro ADME
Protocol: A cold plasma was used to treat the feed side of a microporous membrane as follows. An Accurel® PP 1E microporous polypropylene membrane was obtained from Membrana GmbH (Wuppertal, Germany). This membrane has a nominal pore size of 0.1 μm, a thickness of about 92 μm, and a porosity of about 70%. The contact angle of a drop of water placed on the untreated membrane is greater than about 110°.
The membrane was rinsed five times in fresh isopropyl alcohol at room temperature for about 24 hours, for a total rinsing time of about 120 hours, and then allowed to air dry. Prior to treatment, the membrane was rinsed in methanol in a sonicating bath for 1 minute at ambient temperature, and then allowed to air dry at ambient temperature.
A sample of the membrane measuring about 10 cm by about 23 cm was placed into a glass-walled plasma chamber having an inside diameter of about 3 inches (7.5 cm). The membrane was positioned such that the permeate side of the membrane was against the glass wall of the plasma chamber. The atmosphere of the plasma chamber was saturated with water vapor at a pressure of 550 mtorr by placing a shallow tray of water into the chamber prior to reducing the pressure using a vacuum pump.
After achieving a constant pressure in the plasma chamber (about 3 to 5 minutes), the plasma was generated using radio frequency (RF) power inductively coupled into the chamber via annular electrodes. The power on the RF generator was set at 50 watts. The membrane was exposed to the plasma for 45 seconds, after which the power was turned off and the pressure in the chamber increased to ambient using air. The contact angle of a drop of water placed on the surface of the plasma-treated membrane was about 40°. The contact angle of a drop of water placed on the permeate side of the same membrane was greater than about 110°.
The crystalline form of the cholesteryl ester transfer protein (CETP) inhibitor [2R,4S]4-[(3,5-bis-trifluoromethyl-benzyl)-methoxycarbonyl-amino]-2-ethyl-6-trifluoromethyl-3,4-dihydro-2H-quinoline-1-carboxylic acid ethyl ester, also known as torcetrapib (“Drug 1”) was evaluated in a membrane-permeation test. An apparatus similar to the one shown schematically in FIG. 3 was assembled as follows. A permeate reservoir was formed by gluing a sample of the plasma-treated membrane described above to a glass tube having an inside diameter of about 1 inch (2.54 cm) using an epoxy-based glue (LOCTITE® E-30CL HYSOL® from Henkel Loctite Corp, Rocky Hill, Conn.). The feed-side of the membrane was oriented so that it was on the outside of the permeate reservoir, while the permeate-side of the membrane was oriented so that it was on the inside of the reservoir. The glue was allowed to set by placing the permeate reservoir in an oven at 50° C. and 25% relative humidity (RH) overnight. The contact angle of a drop of water on the feed side of the membrane after assembling the permeate reservoir was about 50°. The effective membrane area of the permeate reservoir was about 4.9 cm^2.
[…] […] This is well in excess of the solubility of Drug 1 in water, estimated to be less than about 0.04 μg/mL. The feed solution was mixed on a vortex mixer for about 1 minute.
The apparatus was assembled by first filling the permeate reservoir with the permeate solution. The permeate reservoir, with attached membrane, was placed within a glass feed reservoir about 3.3 cm in diameter such that the membrane was held about 1 cm above the bottom of the feed reservoir, and the membrane was wetted by the permeate solution. The feed reservoir was equipped with a magnetic stir bar and the reservoir was placed on a stir plate and adjusted to a stir rate of 600 rpm. Care was taken to ensure no air bubbles were trapped beneath the feed side of the membrane. Time 0 was taken as the time the permeate reservoir was placed within the feed solution reservoir such that the feed solution contacted the membrane surface. […]

[2] = membrane-permeation test with un-treated (hydrophobic) microporous membrane; assay type: in vitro ADME
Protocol: A series of tests were performed using the procedure outlined in Example 1 except that an un-treated ACCUREL® PP 1E microporous polypropylene membrane was utilized in the test apparatus. The contact angle of a drop of water on the feed side of the membrane was greater than about 100°, and thus was hydrophobic. The flux of Drug 1 across the membrane was determined using the procedures outlined in Example 1 as a function of the amount of Drug 1 added to the feed solution. […] Without wishing to be bound by any particular theory or mechanism of action, it is believed that without the hydrophilic surface, particles of crystalline drug contacted the permeate solution (decanol) directly and dissolved into the decanol permeate solution, resulting in high maximum fluxes of Drug 1 across the membrane.

[3] = in vivo oral dosing of OPC, plasma concentration; details: dog, beagle dogs, Fed
Protocol: The compositions tested in vitro in Examples 3-6 were tested in vivo to determine whether the in vitro results correlate with the in vivo results. For Examples 7 and 8, the composition was the same as that used in Example 3 (25% Drug 1:HPMCAS-M dispersion) dosed in the fasted state, and fed state, respectively. For Examples 9 and 10, the composition was the same as that used in Example 4 (crystalline Drug 1) dosed in the fasted state and fed state, respectively.
The compositions were orally dosed to beagle dogs in the form of an oral powder for constitution (OPC) by suspending the composition in about 15 mL of a solution of 3 wt % polyethylene glycol (PEG) with a molecular weight of 3,350 daltons, 0.5 wt % methylcellulose, and 0.15 wt % Polysorbate 80 in sterile water. In each case a sufficient amount of the pharmaceutical composition was used such that the OPC contained 90 mgA of Drug 1. The thus-formed OPCs were then dosed to dogs in either the fed state or fasted state (fasted overnight). Blood was collected from the jugular vein of the dogs before dosing and at various time points after dosing. To 100 μL of each plasma sample, 5 mL of methyl-tert-butyl ether (MTBE) and 1 mL of 500 mM sodium carbonate buffer (pH 9) were added; the sample was vortexed for 1 minute and then centrifuged for 5 minutes. The aqueous portion of the sample was frozen in a dry-ice/acetone bath, and the MTBE layer was decanted and evaporated in a vortex evaporator. Dried samples were reconstituted in 100 μL of mobile phase (33% acetonitrile and 67% of 0.1% formic acid in water). Analysis was carried out by HPLC.
The results of these tests are shown in Table 7, where Cmax,24 is the maximum concentration in the blood plasma during the first 24 hours, Tmax is the time to achieve the maximum concentration in the blood plasma and AUC0-24 is the concentration in the blood plasma area under the curve in the first 24 hours.

[4] = partition coefficient between organic fluid and water, from solubility ratio
Text: [formula] where m is the rate at which drug is transported across the membrane (g/sec), Vp is the volume of the permeate solution (cm^3), [D]p is the concentration of drug in the permeate solution (g/cm^3), t is the time (sec), am is the membrane area (cm^2), Pov is the overall permeability coefficient (cm/sec), [Ddissolved]f is the concentration of dissolved drug in the feed solution (g/cm^3), and kp,mem is the partition coefficient of drug between the organic fluid and water, which is defined as the ratio of (1) the concentration of drug in the organic fluid, and (2) the concentration of dissolved neutral drug in the aqueous feed solution when the two solutions are at equilibrium. The partition coefficient can be estimated from the ratio of (1) the solubility of drug in the organic fluid and (2) the solubility of the dissolved drug in the aqueous feed solution.
The organic fluid consisted of 4 mL of decanol, which was added to the permeate reservoir. […] An overhead stirrer was used to stir the decanol permeate solution at 100 rpm.
The organic fluid used in these tests consisted of 5 mL of 20 wt % decanol in decane.

[5] = not told, 120 μg/mL
[6] = organic solvent or mixture, solubility in organic fluid
[7] = water, aqueous solubility (solubility in water)

In the case of `CCOC(=O)N1c2ccc(C(F)(F)F)cc2[C@@H](N(Cc2cc(C(F)(F)F)cc(C(F)(F)F)c2)C(=O)OC)C[C@H]1CC` [Drug 1, [2R,4S]4-[(3,5-bis-trifluoromethyl-benzyl)-methoxycarbonyl-amino]-2-ethyl-6-trifluoromethyl-3,4-dihydro-2H-quinoline-1-carboxylic acid ethyl ester], the “Maximum Flux of Drug 1” value ([1]; 89 μg/mL added to PBS feed, 80 to 160 minutes) is reported as 0.025 μg/cm^2-min, the “Maximum Flux of Drug 1” value ([1]; 1000 μg/mL added to PBS feed, 90 to 210 minutes) is reported as 0.028 μg/cm^2-min and the “slope of permeate concentration versus time (least-squares fit)” value ([1]; 90 to 210 minutes, 1000 μg/mL added to PBS feed) is reported as 0.035 μg/mL-min. For the same compound, the “Drug 1 Concentration in Permeate” value ([1]; time 0 min, 89 μg/mL added to PBS feed) was 0.0 µg/mL, the “Drug 1 Concentration in Permeate” value ([1]; time 0 min, 1000 μg/mL added to PBS feed, 37° C., average of duplicate tests) was 0.0 µg/mL and the “Drug 1 Concentration in Permeate” value ([1]; time 20 min, 89 μg/mL added to PBS feed) was 0.0 µg/mL. For the same compound, the “Drug 1 Concentration in Permeate” value ([1]; time 30 min, 1000 μg/mL added to PBS feed) was 0.0 µg/mL, the “Drug 1 Concentration in Permeate” value ([1]; time 40 min, 89 μg/mL added to PBS feed) was 0.0 µg/mL and the “Drug 1 Concentration in Permeate” value ([1]; time 60 min, 89 μg/mL added to PBS feed) was 0.0 µg/mL. For the same compound, the “Drug 1 Concentration in Permeate” value ([1]; time 60 min, 1000 μg/mL added to PBS feed) was 0.0 µg/mL, the “Drug 1 Concentration in Permeate” value ([1]; time 80 min, 89 μg/mL added to PBS feed) was 1.7 µg/mL and the “Drug 1 Concentration in Permeate” value ([1]; time 90 min, 1000 μg/mL added to PBS feed) was 3.3 µg/mL. For the same compound, the “Drug 1 Concentration in Permeate” value ([1]; time 100 min, 89 μg/mL added to PBS feed) was 2.2 µg/mL, the “Drug 1 Concentration in Permeate” value ([1]; time 120 min, 89 μg/mL added to PBS feed) was 3.0 µg/mL and the “Drug 1 Concentration in Permeate” value ([1]; time 120 min, 1000 μg/mL added to PBS feed) was 4.5 µg/mL. For the same compound, the “Drug 1 Concentration in Permeate” value ([1]; time 140 min, 89 μg/mL added to PBS feed) was 3.7 µg/mL, the “Drug 1 Concentration in Permeate” value ([1]; time 150 min, 1000 μg/mL added to PBS feed) was 6.9 µg/mL and the “Drug 1 Concentration in Permeate” value ([1]; time 160 min, 89 μg/mL added to PBS feed) was 4.0 µg/mL. For the same compound, the “Drug 1 Concentration in Permeate” value ([1]; time 210 min, 1000 μg/mL added to PBS feed) was 7.4 µg/mL, the “Drug 1 Concentration in Permeate” value ([1]; time 240 min, 1000 μg/mL added to PBS feed) was 9.2 µg/mL and the “Drug 1 Concentration in Permeate” value ([1]; time 270 min, 1000 μg/mL added to PBS feed) was 11.8 µg/mL. For the same compound, the “Drug 1 Concentration in Permeate” value ([1]; time 300 min, 1000 μg/mL added to PBS feed) was 12.2 µg/mL, the “Drug 1 Concentration in Permeate” value ([1]; time 330 min, 1000 μg/mL added to PBS feed) was 14.9 µg/mL and the “Drug 1 Concentration in Permeate” value ([1]; time 360 min, 1000 μg/mL added to PBS feed) was 13.9 µg/mL. The “Drug 1 Concentration in Permeate” value ([1]; time 390 min, 1000 μg/mL added to PBS feed) was 16.9 µg/mL, the “Drug 1 Concentration in Permeate” value ([1]; time 420 min, 1000 μg/mL added to PBS feed) was 21.4 µg/mL and the “Drug 1 Concentration in Permeate” value ([1]; time 450 min, 1000 μg/mL added to PBS feed) was 21.5 µg/mL. The “Maximum Flux of Drug” value ([2]; 25 μg/mL Drug 1 added to the feed) was 0.75 μg/cm^2-min, the “Maximum Flux of Drug” value ([2]; 50 μg/mL Drug 1 added to the feed) was 1.5 μg/cm^2-min and the “Maximum Flux of Drug” value ([2]; 80 μg/mL Drug 1 added to the feed) was 4.0 μg/cm^2-min. For the same compound, the “Maximum Flux of Drug” value ([2]; 200 μg/mL Drug 1 added to the feed) was 7.1 μg/cm^2-min, the “Maximum Flux of Drug” value ([2]; 400 μg/mL Drug 1 added to the feed) was 12.6 μg/cm^2-min and the “Maximum Flux of Drug” value ([2]; 700 μg/mL Drug 1 added to the feed) was 26 μg/cm^2-min. For the same compound, the “Maximum Flux of Drug” value ([2]; 1000 μg/mL Drug 1 added to the feed) was 32 μg/cm^2-min, the Tmax ([3]; oral OPC 90 mgA Drug 1) was 2.3 ± 1.9 h and the AUC(0-t) ([3]; oral OPC 90 mgA Drug 1, read-out: AUC0-24) was 928 ± 642 µg·h/mL. For the same compound, the Cmax ([3]; oral OPC 90 mgA Drug 1, read-out: Cmax,24) was 191 ± 55 µg/mL, the “partition coefficient between the organic fluid and water” value [4] was “greater than 650,000” and the “partition coefficient of the drug between the organic fluid and PBS” value [4] was “greater than 650,000”. For the same compound, the “Maximum Flux of Drug 1” value [5] was 0.012 μg/cm^2-min, the “maximum flux in solution modeling the fed state relative to MFD solution” value [5] was 7,6 fold and the solubility (physchem; aqueous buffer, aqueous solubility in PBS) was under 4e-05 mg/mL. For the same compound, the solubility (physchem; organic solvent or mixture, solubility in decanol) was over 25 mg/mL, the solubility (physchem; [6]) was about 25 mg/mL (≈ 41.6 mM) and the solubility (physchem; [7]) was under 4e-05 mg/mL.
In the case of `O=C(N[C@@H](Cc1ccccc1)[C@@H](O)C(=O)N1C[C@@H](O)[C@@H](O)C1)c1cc2cc(Cl)ccc2[nH]1` [Drug 2, 5-chloro-1H-indole-2-carboxylic acid [(1S)-benzyl-(2R)-hydroxy-3-((3R,4S)-dihydroxy-pyrrolidin-1-yl-)-3-oxypropyl]amide], the “partition coefficient between the organic fluid and water” value [4] is reported as “about 12”.
In the case of `CC[C@@H]1C[C@H](N(Cc2cc(C(F)(F)F)cc(C(F)(F)F)c2)C(C)=O)c2cc(C(F)(F)F)ccc2N1C(=O)OC(C)C` [Drug 3, [2R,4S]4-[acetyl-(3,5-bis-trifluoromethyl-benzyl)-amino]-2-ethyl-6-trifluoromethyl-3,4-dihydro-2H-quinoline-1-carboxylic acid isopropyl ester], the “partition coefficient between the organic fluid and water” value ([4]; 20 wt % decanol in decane / water) is reported as “greater than 250,000”, the “Maximum Flux of Drug 3” value [5] is reported as 0.06 μg/cm^2-min and the solubility (physchem; [6]) is reported as over 25 mg/mL. For the same compound, the solubility (physchem; [7]) was under 0.0001 mg/mL.

— patent US7611630B2, “Method and device for evaluation of pharmaceutical compositions” (Bend Research, Inc., priority 2004, dated 2009)
